From patent publication US12679843B2, “Pyrrolopyrimidine amines as complement inhibitors” (BioCryst Pharmaceuticals, Inc., priority 2020, dated 2026)

Target: Factor D (Homo sapiens, UniProt P00746)
Experiment: Factor D esterolytic assay (Z-Lys-SBzl thioester substrate, DTNB, 405 nm)
Type: biochemical
Conditions: substrate Z-Lys-SBzl 1.29 mM, 100 mM HEPES, 500 mM NaCl, pH 7.5, 10% DMSO, tested a minimum of three times
In short: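 Human Factor D hydrolysis of Z-Lys-SBzl (1.29 mM) monitored at 405 nm via DTNB thiol detection for 600 s, 690 nm background subtracted. Buffer 100 mM HEPES, 500 mM NaCl, pH 7.5, 10% DMSO; substrate added immediately or after room-temperature preincubation. IC50 from percent inhibition of rate, at least three tests.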

Factor D, sequence (P00746 26-253): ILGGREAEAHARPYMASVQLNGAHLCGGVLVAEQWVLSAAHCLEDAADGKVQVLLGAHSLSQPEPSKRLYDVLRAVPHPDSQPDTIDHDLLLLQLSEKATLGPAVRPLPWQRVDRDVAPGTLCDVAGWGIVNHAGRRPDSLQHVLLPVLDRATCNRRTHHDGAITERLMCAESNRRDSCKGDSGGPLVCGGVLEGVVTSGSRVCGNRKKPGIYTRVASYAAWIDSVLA

IC50 [nM]	Structure (SMILES)
< 100	Cc1cc(C(F)(F)F)nc2c3c(N)ncnc3n(CC(=O)N3[C@H](C(=O)Nc4cccc(Br)n4)C[C@@]4(C)C[C@@H]34)c12 [Compound 363a, (1R,3S,5R)-2-(2-(4-amino-8-methyl-6-(trifluoromethyl)-9H-pyrido[2′,3′:4,5]pyrrolo[2,3-d]pyrimidin-9-yl)acetyl)-N-(6-bromopyridin-2-yl)-5-methyl-2-azabicyclo[3.1.0]hexane-3-carboxamide]
< 100	Cc1ncc(NC(=O)[C@@H]2C[C@@]3(C)C[C@H]3N2C(=O)Cn2c3ncnc(N)c3c3cc(C(F)(F)F)cc(C)c32)nc1Br [Compound 364d, (1R,3S,5R)-2-(2-(4-amino-8-methyl-6-(trifluoromethyl)-9H-pyrimido[4,5-b]indol-9-yl)acetyl)-N-(6-bromo-5-methylpyrazin-2-yl)-5-methyl-2-azabicyclo[3.1.0]hexane-3-carboxamide]
< 100	Cc1ncc(NC(=O)[C@@H]2C[C@@]3(C)C[C@H]3N2C(=O)Cn2c3ncnc(N)c3c3cc(C(F)(F)F)cc(C)c32)nc1Cl [Compound 364e, (1R,3S,5R)-2-(2-(4-amino-8-methyl-6-(trifluoromethyl)-9H-pyrimido[4,5-b]indol-9-yl)acetyl)-N-(6-chloro-5-methylpyrazin-2-yl)-5-methyl-2-azabicyclo[3.1.0]hexane-3-carboxamide]
< 100	Cc1ccc(Cl)nc1NC(=O)[C@@H]1C[C@@H](F)CN1C(=O)Cn1c2ncnc(N)c2c2cc(C(F)(F)F)cc(C)c21 [Compound 365c, (2S,4R)-1-(2-(4-amino-8-methyl-6-(trifluoromethyl)-9H-pyrimido[4,5-b]indol-9-yl)acetyl)-N-(6-chloro-3-methylpyridin-2-yl)-4-fluoropyrrolidine-2-carboxamide]
< 100	Cc1cc(F)c(Br)nc1NC(=O)[C@@H]1C[C@@H](F)CN1C(=O)Cn1c2ncnc(N)c2c2cc(C(F)(F)F)cc(C)c21 [Compound 366c, (2S,4R)-1-(2-(4-amino-8-methyl-6-(trifluoromethyl)-9H-pyrimido[4,5-b]indol-9-yl)acetyl)-N-(6-bromo-5-fluoro-3-methylpyridin-2-yl)-4-fluoropyrrolidine-2-carboxamide]
< 100	COc1cc2c(cc1C(F)(F)F)c1c(N)ncnc1n2CC(=O)N1[C@@H]2C[C@@H]2C[C@H]1C(=O)Nc1cccc(Br)n1 [Compound 367g, (1R,3S,5R)-2-(2-(4-amino-7-methoxy-6-(trifluoromethyl)-9H-pyrimido[4,5-b]indol-9-yl)acetyl)-N-(6-bromopyridin-2-yl)-2-azabicyclo[3.1.0]hexane-3-carboxamide]
< 100	COc1cc2c(cc1C(F)(F)F)c1c(N)ncnc1n2CC(=O)N1[C@H](C(=O)Nc2cccc(Br)n2)C[C@@]2(C)C[C@@H]12 [Compound 368a, (1R,3S,5R)-2-(2-(4-amino-7-methoxy-6-(trifluoromethyl)-9H-pyrimido[4,5-b]indol-9-yl)acetyl)-N-(6-bromopyridin-2-yl)-5-methyl-2-azabicyclo[3.1.0]hexane-3-carboxamide]
< 100	Nc1ncnc2c1c1cc(C(F)(F)F)cc(F)c1n2CC(=O)N1[C@@H]2C[C@@H]2C[C@H]1C(=O)Nc1cccc(Br)n1 [Compound 369g, (1R,3S,5R)-2-(2-(4-amino-8-fluoro-6-(trifluoromethyl)-9H-pyrimido[4,5-b]indol-9-yl)acetyl)-N-(6-bromopyridin-2-yl)-2-azabicyclo[3.1.0]hexane-3-carboxamide]
< 100	Cc1cc(-c2ccco2)cc2c3c(N)ncnc3n(CC(=O)N3[C@@H]4C[C@@H]4C[C@H]3C(=O)Nc3cccc(Br)n3)c12 [Compound 370a, (1R,3S,5R)-2-(2-(4-amino-6-(furan-2-yl)-8-methyl-9H-pyrimido[4,5-b]indol-9-yl)acetyl)-N-(6-bromopyridin-2-yl)-2-azabicyclo[3.1.0]hexane-3-carboxamide]
100 to 1000	Nc1ncnc2c1c1nc(-c3cccnc3)ccc1n2CC(=O)N1[C@@H]2C[C@@H]2C[C@H]1C(=O)Nc1cccc(Br)n1 [Compound 371c, (1R,3S,5R)-2-(2-(4-amino-6-(pyridin-3-yl)-9H-pyrido[2′,3′:4,5]pyrrolo[2,3-d]pyrimidin-9-yl)acetyl)-N-(6-bromopyridin-2-yl)-2-azabicyclo[3.1.0]hexane-3-carboxamide]
100 to 1000	C[C@@]12C[C@@H](C(=O)Nc3cccc(Br)n3)N(C(=O)Cn3c4ccc(-c5cccnc5)nc4c4c(N)ncnc43)[C@@H]1C2 [Compound 372a, (1R,3S,5R)-2-(2-(4-amino-6-(pyridin-3-yl)-9H-pyrido[2′,3′:4,5]pyrrolo[2,3-d]pyrimidin-9-yl)acetyl)-N-(6-bromopyridin-2-yl)-5-methyl-2-azabicyclo[3.1.0]hexane-3-carboxamide]
100 to 1000	C[C@@]12C[C@@H](C(=O)Nc3cccc(Br)n3)N(C(=O)Cn3c4ccc(-c5ccncc5)nc4c4c(N)ncnc43)[C@@H]1C2 [Compound 373a, (1R,3S,5R)-2-(2-(4-amino-6-(pyridin-4-yl)-9H-pyrido[2′,3′:4,5]pyrrolo[2,3-d]pyrimidin-9-yl)acetyl)-N-(6-bromopyridin-2-yl)-5-methyl-2-azabicyclo[3.1.0]hexane-3-carboxamide]
< 100	COc1cc2c(cc1Br)c1c(N)ncnc1n2CC(=O)N1[C@@H]2C[C@@H]2C[C@H]1C(=O)Nc1cccc(Br)n1 [Compound 374g, (1R,3S,5R)-2-(2-(4-amino-6-bromo-7-methoxy-9H-pyrimido[4,5-b]indol-9-yl)acetyl)-N-(6-bromopyridin-2-yl)-2-azabicyclo[3.1.0]hexane-3-carboxamide]
< 100	COc1cc2c(cc1Br)c1c(N)ncnc1n2CC(=O)N1[C@H](C(=O)Nc2cccc(Br)n2)C[C@@]2(C)C[C@@H]12 [Compound 375a, (1R,3S,5R)-2-(2-(4-amino-6-bromo-7-methoxy-9H-pyrimido[4,5-b]indol-9-yl)acetyl)-N-(6-bromopyridin-2-yl)-5-methyl-2-azabicyclo[3.1.0]hexane-3-carboxamide]
< 100	Nc1ncnc2c1c1cc(Br)cc(F)c1n2CC(=O)N1[C@@H]2C[C@@H]2C[C@H]1C(=O)Nc1cccc(Br)n1 [Compound 376g, (1R,3S,5R)-2-(2-(4-amino-6-bromo-8-fluoro-9H-pyrimido[4,5-b]indol-9-yl)acetyl)-N-(6-bromopyridin-2-yl)-2-azabicyclo[3.1.0]hexane-3-carboxamide]
< 100	C[C@@]12C[C@@H](C(=O)Nc3cccc(Br)n3)N(C(=O)Cn3c4ncnc(N)c4c4cc(Br)cc(F)c43)[C@@H]1C2 [Compound 377a, (1R,3S,5R)-2-(2-(4-amino-6-bromo-8-fluoro-9H-pyrimido[4,5-b]indol-9-yl)acetyl)-N-(6-bromopyridin-2-yl)-5-methyl-2-azabicyclo[3.1.0]hexane-3-carboxamide]
< 100	Cc1cc(-c2ccccn2)cc2c3c(N)ncnc3n(CC(=O)N3[C@H](C(=O)Nc4cccc(Br)n4)C[C@@]4(C)C[C@@H]34)c12 [Compound 378c, (1R,3S,5R)-2-(2-(4-amino-8-methyl-6-(pyridin-2-yl)-9H-pyrimido[4,5-b]indol-9-yl)acetyl)-N-(6-bromopyridin-2-yl)-5-methyl-2-azabicyclo[3.1.0]hexane-3-carboxamide]
< 100	Cc1cc2c(cc1Br)c1c(N)ncnc1n2CC(=O)N1[C@@H]2C[C@@H]2C[C@H]1C(=O)Nc1cccc(Br)n1 [Compound 379h, (1R,3S,5R)-2-(2-(4-amino-6-bromo-7-methyl-9H-pyrimido[4,5-b]indol-9-yl)acetyl)-N-(6-bromopyridin-2-yl)-2-azabicyclo[3.1.0]hexane-3-carboxamide]
< 100	Cc1cc2c(cc1Br)c1c(N)ncnc1n2CC(=O)N1[C@H](C(=O)Nc2cccc(Br)n2)C[C@@]2(C)C[C@@H]12 [Compound 380a, (1R,3S,5R)-2-(2-(4-amino-6-bromo-7-methyl-9H-pyrimido[4,5-b]indol-9-yl)acetyl)-N-(6-bromopyridin-2-yl)-5-methyl-2-azabicyclo[3.1.0]hexane-3-carboxamide]
< 100	Cc1cc2c(cc1F)c1c(N)ncnc1n2CC(=O)N1[C@@H]2C[C@@H]2C[C@H]1C(=O)Nc1cccc(Br)n1 [Compound 381g, (1R,3S,5R)-2-(2-(4-amino-6-fluoro-7-methyl-9H-pyrimido[4,5-b]indol-9-yl)acetyl)-N-(6-bromopyridin-2-yl)-2-azabicyclo[3.1.0]hexane-3-carboxamide]
< 100	Cc1cc2c(cc1F)c1c(N)ncnc1n2CC(=O)N1[C@H](C(=O)Nc2cccc(Br)n2)C[C@@]2(C)C[C@@H]12 [Compound 382a, (1R,3S,5R)-2-(2-(4-amino-6-fluoro-7-methyl-9H-pyrimido[4,5-b]indol-9-yl)acetyl)-N-(6-bromopyridin-2-yl)-5-methyl-2-azabicyclo[3.1.0]hexane-3-carboxamide]
< 100	COc1cc2c(cc1F)c1c(N)ncnc1n2CC(=O)N1[C@@H]2C[C@@H]2C[C@H]1C(=O)Nc1cccc(Br)n1 [Compound 383g, (1R,3S,5R)-2-(2-(4-amino-6-fluoro-7-methoxy-9H-pyrimido[4,5-b]indol-9-yl)acetyl)-N-(6-bromopyridin-2-yl)-2-azabicyclo[3.1.0]hexane-3-carboxamide]
< 100	Cc1cc2c3c(N)ncnc3n(CC(=O)N3[C@@H]4C[C@@H]4C[C@H]3C(=O)Nc3cccc(Br)n3)c2cc1F [Compound 384g, (1R,3S,5R)-2-(2-(4-amino-7-fluoro-6-methyl-9H-pyrimido[4,5-b]indol-9-yl)acetyl)-N-(6-bromopyridin-2-yl)-2-azabicyclo[3.1.0]hexane-3-carboxamide]
< 100	Cc1cc2c3c(N)ncnc3n(CC(=O)N3[C@H](C(=O)Nc4cccc(Br)n4)C[C@@]4(C)C[C@@H]34)c2cc1F [Compound 385a, (1R,3S,5R)-2-(2-(4-amino-7-fluoro-6-methyl-9H-pyrimido[4,5-b]indol-9-yl)acetyl)-N-(6-bromopyridin-2-yl)-5-methyl-2-azabicyclo[3.1.0]hexane-3-carboxamide]
